Reference: patent US8592421B2, “Cyclic bioisosters of purine system derivatives and a pharmaceutical composition based thereon” (priority 2003, dated 2013)

How the values were obtained:
[1] = Morphine abstinence model: indicator enzymes ALT, AST, γ-GTP in blood plasma; conditions: 20.0 mg/kg intramuscularly three times a day; for γ-GTP in blood plasma, Ci: control 6.261 ± 1.80; for ALT in blood plasma, Ci: control 106.76 ± 111.35; for AST in blood plasma, Ci: control 179.881 ± 11.94
Procedure: The experiments were carried out on rats in series of 7 animals on each compound according to the invention. Non-morphinized animal with not administered with compounds according to the invention were used as a control group. […] Then the rats were decapitated, the blood from somnolent arteries was collected in test tubes with solution EDTA as an anticoagulant, centrifuged at 1500 g for 15 minutes at 4° C.
To estimate possible hepatoprotective action of the compounds according to the invention under conditions of development of an oxidizing stress in the liver cells, effect of these compounds on the most important biochemical blood indexes, in particular, on the content in blood plasma of indicator enzyme of aspartateaminotransferase (AST), alanineaminotransferase (ALT), γ-glutamiletranspeptidase (γ-GTP) was investigated. The content of enzymes was estimated by their catalyzing activity in blood plasma.
The activity of AST, ALT and γ-GTP was determined by means of diagnostic sets DiaSys, Germany.

[2] = test system: synthase of nitrogen oxide (NOC); experiment: Morphine abstinence model: activity of synthase of nitrogen oxide (NOC), radiometric [3H]L-citrulline method; assay type: in vivo, rats Wistar; conditions: 20.0 mg/kg intramuscularly; for Activity of NOC: Mesencephalon: control 2.18 ± 0.09; for Activity of NOC: Hypothalamus: control 5.37 ± 0.20
[3] = Morphine abstinence model: thymus condition (mass, nitrites); assay type: in vivo, rats; conditions: for Nitrites in thymus supernatant: control 0.331 ± 0.041; for Thymus mass: control 230 ± 14
Source text: The spectrometric method is based the reaction of nitrites with the Griss reagent (a mixture of 2% solution of sulfanilamide and 0.2% N-(1-naphthyl)ethylene diamine. At the first step the nitrite reacts with sulfanilamide with formation of diazonium salt, and then with the second component to form azo dye with an adsorption maximum at 540 nm. For reduction of nitrates into nitrites, a fermentative method was used with bacterial reductase nitrate (Grisham M. B. et al., 1995). The samples of plasma and supernathant of the liver deproteinizated at 100° C. for 5 minutes incubated for 30 minutes at 37° C. in 50.0 mM of HEPES pH 7.4 in the presence of 0.2 unit/ml of Aspergillus reductase nitrate, 5.0 mkM of FAD and 0.1 mM of NAD-Ph. At the end of the reaction lactate dehydrogenase and pyruvate were added for isolation of NAD-Ph interfering with the Griss reaction. Then the Griss reagent was added and after 10-minute incubation the light absorption of the samples was measured at 540 nm. To amount of NOX^− was calculated using sodium nitrate as a standard.
The effect of the compounds according to the invention on the condition of the thymus of the rats was also investigated: a control group, an experimental group of morphinized animals and an experimental group of animals were first morphinized and then injected with the compounds according to the invention. The experiment was carried out similarly to that described above.

[4] = Administration of morphine and compound

| Structure (SMILES) | γ-GTP in blood plasma, Ci ([1]; Control + compound) [mE/l] | ALT in blood plasma, Ci ([1]; Control + compound) [mE/l] | AST in blood plasma, Ci ([1]; Control + compound) [mE/l] | γ-GTP in blood plasma, Ci ([1]; control + Morphine + Compound) [mE/l] | ALT in blood plasma, Ci ([1]; control + Morphine + Compound) [mE/l] | AST in blood plasma, Ci ([1]; control + Morphine + Compound) [mE/l] | Activity of NOC: Mesencephalon ([2]; Control + Compound) | Activity of NOC: Hypothalamus ([2]; Control + Compound) | Activity of NOC: Mesencephalon ([2]; Control + Morphine + compound) | Activity of NOC: Hypothalamus ([2]; Control + Morphine + compound) | Nitrites in thymus supernatant ([3]; Administration of compounds) | Thymus mass ([3]; Administration of compounds) [mg] | Nitrites in thymus supernatant [3, 4] | Thymus mass [3, 4] [mg] |
| --- | --- | --- | --- | --- | --- | --- | --- | --- | --- | --- | --- | --- | --- | --- |
| O=c1[nH][nH]c(=O)c2nccnc12.[Li] [Compound 25, lithium salt of pyrazine[2,3-d]-6H-pyridazine-5,8-dione] | 7.57 ± 1.93 | 115.27 ± 1.09 | 177.34 ± 6.13 | 11.37 ± 1.54 | 121.96 ± 3.4 | 196.46 ± 15.34 | 2.65 ± 0.43 pmol/min/mg of protein | 5.88 ± 0.27 pmol/min/mg of protein | 1.97 ± 0.27 pmol/min/mg of protein | 5.23 ± 0.27 pmol/min/mg of protein | 0.417 ± 0.02 nmol/mg of protein | 254 ± 14 | 0.396 ± 0.02 nmol/mg of protein | 218 ± 17 |
| O=c1[nH][nH]c(=O)c2ncccc12.[Li] [Compound 6, lithium salt of pyrido[2,3-d]-6H-pyridazine-5,8-dione] | 8.27 ± 2.12 | 114.5 ± 1.13 | 176.18 ± 3.26 | 12.52 ± 2.02 | 122.44 ± 2.01 | 198.34 ± 9.32 | 2.84 ± 0.31 pmol/min/mg of protein | 5.93 ± 0.27 pmol/min/mg of protein | 1.99 ± 0.31 pmol/min/mg of protein | 5.24 ± 0.24 pmol/min/mg of protein | 0.424 ± 0.04 nmol/mg of protein | 242 ± 17 | 0.419 ± 0.02 nmol/mg of protein | 207 ± 14 |
